According to patent US12497460B2, “Anti-MSR1 antibodies and methods of use thereof” (REGENERON PHARMACEUTICALS, INC., priority 2018, dated 2025):

Test system: LXR (THP1/LXR-Luc cells)
Experiment: Cell based LXR responsive luciferase reporter assay (Examples 34A, 34C)
Conditions: Homo sapiens, payload compounds, differentiated THP-1/LXR-Luc cells (Table 30); for maximal fold induction: read-out: S/N
Method: The activity of certain LXR agonist payloads described herein were assessed in a cell based LXR responsive luciferase reporter assay. To generate the assay cell line, an LXR regulated luciferase reporter gene (Cignal Lenti LXR Reporter (luc) kit (Qiagen, Cat #CLS-001L)) was transduced into THP1 cells and the cells were selected for two weeks in puromycin. The lentivirus expresses the firefly luciferase gene under the control of a minimal CMV promoter and tandem repeats of the LXR transcriptional response element. The resulting cell line is referred to as THP1/LXR-Luc cells. For the assay, THP1/LXR-Luc cells were seeded onto 96 well plates at 40,000 cells/well in media containing RPMI supplemented with 10% FBS and penicillin/streptomycin and were then differentiated with 200 nM Phorbol Myristate Acetate (PMA) for 3 days. The media was subsequently removed and replaced with 80 uL of fresh media without PMA. Three-fold serial dilutions of free payloads were prepared in 100% DMSO, transferred to fresh media, and 20 uL were added to the cells at a final constant DMSO concentration of 0.2% and free payloads at final concentrations ranging from 100 nM to 0.015 nM. The last well in the plate served as blank control containing only the media and 0.2% DMSO (untreated well) and was plotted as a continuation of the 3-fold serial dilution. Forty-eight hours later, luciferase activity was determined after the addition of One-Glo™ reagent (Promega, Cat #E6130) to each well. Relative light units (RLUs) were measured on a Victor luminometer (PerkinElmer) and EC50 values were determined using a four-parameter logistic equation over a 10-point dose response curve (GraphPad Prism). The signal to noise (S/N) was determined by taking the ratio of the highest RLU on the dose response curve to the RLU in the untreated wells.
Several linker-payloads (LPs) were derived from the payload compounds in Table C and conjugated to an anti-MSR1 antibody (H1H21234N-N297Q) or a non-binding control using the techniques described in the previous example. The resulting anti-MSR1 LXR agonist antibody drug conjugates (ADCs) were tested for activity in the THP1/LXRLuc reporter assay as described above for the payload compounds.

EC50 [pM]	Compound	maximal fold induction
1140	C[C@]1(C(=O)NC(=O)[C@@]2(C)CCC[C@]3(C)c4cc(O)ccc4CC[C@@H]23)CCC[C@]2(C)c3cc(N)ccc3CC[C@@H]12 [P1, (1S,4aS,10aR)-N-[(1S,4aS,10aR)-6-Amino-1,4a-dimethyl-1,2,3,4,4a,9,10,10a-octahydrophenanthrene-1-carbonyl]-6-hydroxy-1,4a-dimethyl-1,2,3,4,4a,9,10,10a-octahydrophenanthrene-1-carboxamide]	11.4
292	C[C@]1(C(=O)NC(=O)[C@@]2(C)CCC[C@]3(C)c4cc(N)ccc4CC[C@@H]23)CCC[C@]2(C)c3cc(N)ccc3CC[C@@H]12 [P2B, (1S,4aS,10aR)-6-Amino-N-((1S,4aS,10aR)-6-amino-1,4a-dimethyl-1,2,3,4,4a,9,10,10a-octahydrophenanthrene-1-carbonyl)-1,4a-dimethyl-1,2,3,4,4a,9,10,10a-octahydrophenanthrene-1-carboxamide]	11.3
125	C[C@]1(C(=O)NC(=O)[C@@]2(C)CCC[C@]3(C)c4cc(NC(=O)CN)ccc4CC[C@@H]23)CCC[C@]2(C)c3cc(N)ccc3CC[C@@H]12 [P4B, (1S,4aS,10aR)-N-[(1S,4aS,10aR)-6-(2-Aminoacetamido)-1,4a-dimethyl-1,2,3,4,4a,9,10,10a-octahydrophenanthrene-1-carbonyl]-6-amino-1,4a-dimethyl-1,2,3,4,4a,9,10,10a-octahydrophenanthrene-1-carboxamide]	10.4
174	C[C@]1(C(=O)NC(=O)[C@@]2(C)CCC[C@]3(C)c4cc(NC(=O)[C@@H](N)CO)ccc4CC[C@@H]23)CCC[C@]2(C)c3cc(N)ccc3CC[C@@H]12 [P5B, (1S,4aS,10aR)-6-Amino-N-((1S,4aS,10aR)-6-((S)-2-amino-3-hydroxypropanamido)-1,4a-dimethyl-1,2,3,4,4a,9,10,10a-octahydrophenanthrene-1-carbonyl)-1,4a-dimethyl-1,2,3,4,4a,9,10,10a-octahydrophenanthrene-1-carboxamide]	13.8
3340	C[C@]1(C(=O)NC(=O)[C@@]2(C)CCC[C@]3(C)c4cc(NC(=O)[C@@H](N)CCCCN)ccc4CC[C@@H]23)CCC[C@]2(C)c3cc(N)ccc3CC[C@@H]12 [P6B, (1S,4aS,10aR)-6-Amino-N-((1S,4aS,10aR)-6-((S)-2,6-diaminohexanamido)-1,4a-dimethyl-1,2,3,4,4a,9,10,10a-octahydrophenanthrene-1-carbonyl)-1,4a-dimethyl-1,2,3,4,4a,9,10,10a-octahydrophenanthrene-1-carboxamide]	10.9
253	C[C@]1(C(=O)NC(=O)[C@@]2(C)CCC[C@]3(C)c4cc(NC(=O)[C@@H](N)CC(=O)O)ccc4CC[C@@H]23)CCC[C@]2(C)c3cc(N)ccc3CC[C@@H]12 [P7B, (S)-3-Amino-4-((4bS,8S,8aR)-8-((1S,4aS,10aR)-6-amino-1,4a-dimethyl-1,2,3,4,4a,9,10,10a-octahydrophenanthrene-1-carbonylcarbamoyl)-4b,8-dimethyl-4b,5,6,7,8,8a,9,10-octahydrophenanthren-3-ylamino)-4-oxobutanoic acid]	12.5
3510	C[C@]1(C(=O)NC(=O)[C@@]2(C)CCC[C@]3(C)c4cc(NC(=O)[C@@H](N)CCC(=O)O)ccc4CC[C@@H]23)CCC[C@]2(C)c3cc(N)ccc3CC[C@@H]12 [P8B, (S)-4-Amino-5-((4bS,8S,8aR)-8-((1S,4aS,10aR)-6-Amino-1,4a-dimethyl-1,2,3,4,4a,9,10,10a-octahydrophenanthrene-1-carbonylcarbamoyl)-4b,8-dimethyl-4b,5,6,7,8,8a,9,10-octahydrophenanthren-3-ylamino)-5-oxopentanoic acid]	10.8
234	C[C@]1(C(=O)NC(=O)[C@@]2(C)CCC[C@]3(C)c4cc(NC(=O)[C@@H](N)Cc5cnc[nH]5)ccc4CC[C@@H]23)CCC[C@]2(C)c3cc(N)ccc3CC[C@@H]12 [P9B, (1S,4aS,10aR)-6-amino-N-((1S,4aS,10aR)-6-((S)-2-amino-3-(1H-imidazol-4-yl)propanamido)-1,4a-dimethyl-1,2,3,4,4a,9,10,10a-octahydrophenanthrene-1-carbonyl)-1,4a-dimethyl-1,2,3,4,4a,9,10,10a-octahydrophenanthrene-1-carboxamide]	12.8
222	C[C@]1(C(=O)NC(=O)[C@@]2(C)CCC[C@]3(C)c4cc(NC(=O)[C@@H](N)CCC(=O)O)ccc4CC[C@@H]23)CCC[C@]2(C)c3cc(NC(=O)CN)ccc3CC[C@@H]12 [P10B, (S)-4-Amino-5-((4bS,8S,8aR)-8-((1S,4aS,10aR)-6-(2-aminoacetamido)-1,4a-dimethyl-1,2,3,4,4a,9,10,10a-octahydrophenanthrene-1-carbonylcarbamoyl)-4b,8-dimethyl-4b,5,6,7,8,8a,9,10-octahydrophenanthren-3-ylamino)-5-oxopentanoic acid]	11.1
112	C[C@]1(C(=O)NC(=O)[C@@]2(C)CCC[C@]3(C)c4cc(NC(=O)[C@@H](N)CCC(=O)O)ccc4CC[C@@H]23)CCC[C@]2(C)c3cc(NC(=O)[C@@H](N)CCC(=O)O)ccc3CC[C@@H]12 [P11B, (4S,4'S)-5,5′-(4bS,4b'S,8S,8aR,8'S,8a′R)-8,8′-(Azanediylbis(oxomethylene))bis(4b,8-dimethyl-4b,5,6,7,8,8a,9,10-octahydrophenanthrene-8,3-diyl)bis(azanediyl)bis(4-amino-5-oxopentanoic acid)]	10.7
296	C[C@H](NC(=O)[C@@H](N)CCC(=O)O)C(=O)Nc1ccc2c(c1)[C@@]1(C)CCC[C@](C)(C(=O)NC(=O)[C@@]3(C)CCC[C@]4(C)c5cc(N)ccc5CC[C@@H]34)[C@@H]1CC2 [P12B, (S)-4-Amino-5-((S)-1-((4bS,8S,8aR)-8-((1S,4aS,10aR)-6-amino-1,4a-dimethyl-1,2,3,4,4a,9,10,10a-octahydrophenanthrene-1-carbonylcarbamoyl)-4b,8-dimethyl-4b,5,6,7,8,8a,9,10-octahydrophenanthren-3-ylamino)-1-oxopropan-2-ylamino)-5-oxopentanoic acid]	11.4
